Results reported in patent US6737383B1, “Herbicidal oxadiazolidines” (priority 1999, dated 2004).

Legend:
giant foxtail = test: Test B pre/postemergence giant foxtail; assay type: in vivo, Setaria faberii
Procedure, shortened: (§1)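 Herbicidal effect was estimated by eye on a ten-point control scale after plants spent twelve to sixteen days in a greenhouse following soil or foliar treatment. Foliar sprays targeted plants at one to four leaves; all doses were formulated in a non-phytotoxic solvent with surfactant.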

rape = test: Test B pre/postemergence rape; assay type: in vivo, Brassica napus
Procedure, shortened: as §1

bedstraw = test: Test B pre/postemergence bedstraw; assay type: in vivo, Galium aparine; settings: Preemergence
Procedure, shortened: as §1

cocklebur = test: Test B pre/postemergence cocklebur; assay type: in vivo, Xanthium strumarium
Procedure, shortened: as §1

wild oat = test: Test B pre/postemergence wild oat; assay type: in vivo, Avena fatua; settings: for Plant response rating, Wild oats: Rate 250 g/ha
Procedure, shortened: as §1

wheat = test: Test B pre/postemergence wheat; assay type: in vivo, Triticum aestivum; settings: for Plant response rating, Wheat: Rate 250 g/ha
Procedure, shortened: as §1

surinam grass = test: Test B pre/postemergence surinam grass; assay type: in vivo, Brachiaria decumbens
Procedure, shortened: as §1

corn = test: Test B pre/postemergence corn; assay type: in vivo, Zea mays
Procedure, shortened: as §1

morningglory = test: Test B pre/postemergence morningglory; assay type: in vivo, Ipomoea hederacea
Procedure, shortened: as §1

sugar beet = test: Test B pre/postemergence sugar beet; assay type: in vivo, Beta vulgaris; settings: for Plant response rating, Sugarbeets: Rate 250 g/ha
Procedure, shortened: as §1

purple nutsedge = test: Test B pre/postemergence purple nutsedge; assay type: in vivo, Cyperus rotundus
Procedure, shortened: as §1

blackgrass = test: Test B pre/postemergence blackgrass; assay type: in vivo, Alopecurus myosuroides
Procedure, shortened: as §1

bamyardgrass = test: Test B flood test barnyardgrass; assay type: in vivo, Echinochloa crus-galli
Procedure, shortened: (§2)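 Plants were grown to the 2-leaf stage before treatment with test chemical, then held in a greenhouse for twelve to sixteen days. Injury was visually rated against untreated controls on a 0–10 scale, where 0 is no effect and 10 is complete control.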

rice = test: Test B flood test rice; assay type: in vivo, Oryza sativa
Procedure, shortened: as §2

crabgrass = test: Test B pre/postemergence crabgrass; assay type: in vivo, Digitaria sanguinalis
Procedure, shortened: as §1

pigweed = test: Test B pre/postemergence pigweed; assay type: in vivo, Amaranthus retroflexus
Procedure, shortened: as §1

[1] = Postemergence, Rate 62 g/ha, scale 0 to 10, 0 is no effect, 10 is complete control
[2] = Postemergence, Rate 125 g/ha, scale of 0 to 10 where 0 is no effect and 10 is complete control
[3] = Postemergence, Rate 250 g/ha, scale 0 to 10, 0 no effect, 10 complete control
[4] = Preemergence, Rate 62 g/ha, scale 0 to 10 (0 no effect, 10 complete control)
[5] = Preemergence, Rate 125 g/ha, scale 0 to 10 (0 no effect, 10 complete control)
[6] = Preemergence, Rate 250 g/ha, scale of 0 to 10 where 0 is no effect and 10 is complete control
[7] = Preemergence, Rate 500 g/ha, scale 0 (no effect) to 10 (complete control)
[8] = Rate 500 g/ha, Postemergence, scale 0 to 10, 0 no effect, 10 complete control
[9] = Preemergence, Rate 125 g/ha, 0 is no effect, 10 is complete control
[10] = Preemergence, scale of 0 to 10 where 0 is no effect and 10 is complete control
[11] = Postemergence, scale 0 to 10, 0 is no effect, 10 is complete control
[12] = Rate 250 g/ha, headed Pre-emergence (flood test species), scale 0 to 10 (0 no effect, 10 complete control)
[13] = Rate 500 g/ha, headed Pre-emergence (flood test species), scale 0 to 10 (0 no effect, 10 complete control)
[14] = Rate 500 g/ha, listed under Postemergence (flood test species), scale 0 to 10, 0 no effect, 10 complete control
[15] = Rate 1000 g/ha, Pre-emergence (as headed), scale 0 to 10

CC(C)N(C(=O)n1oc(=O)n(Cc2ccccc2)c1=O)c1ccccc1 [Compound 94]
Giant foxtail plant response rating (giant foxtail; [1]): 0 | Giant foxtail plant response rating (giant foxtail; [2]): 0 | Giant foxtail plant response rating (giant foxtail; [3]): 5 | Giant foxtail plant response rating (giant foxtail; [4]): 8 | Plant response rating, Giant foxtail (giant foxtail; [5]): 9 | Plant response rating, Giant foxtail (giant foxtail; [6]): 9 | Giant foxtail plant response rating (giant foxtail; [7]): 10 | Giant foxtail plant response rating (giant foxtail; [8]): 8 | Rape plant response rating (rape; [1]): 1 | Rape plant response rating (rape; [2]): 2 | Rape plant response rating (rape; [3]): 2 | Rape plant response rating (rape; [4]): 0 | Plant response rating, Rape (rape; [5]): 0 | Plant response rating, Rape (rape; [6]): 2 | Rape plant response rating (rape; [7]): 5 | Rape plant response rating (rape; [8]): 3 | Bedstraw plant response rating (bedstraw; Rate 62 g/ha, scale 0 to 10 (0 no effect, 10 complete control)): 0 | Plant response rating, Bedstraw (bedstraw; Rate 125 g/ha, scale 0 to 10 (0 no effect, 10 complete control)): 0 | Plant response rating, Bedstraw (bedstraw; Rate 250 g/ha, scale of 0 to 10 where 0 is no effect and 10 is complete control): 0 | Bedstraw plant response rating (bedstraw; Rate 500 g/ha, scale 0 (no effect) to 10 (complete control)): 0 | Cocklebur plant response rating (cocklebur; [1]): 0 | Cocklebur plant response rating (cocklebur; [2]): 1 | Cocklebur plant response rating (cocklebur; [3]): 1 | Cocklebur plant response rating (cocklebur; [4]): 0 | Plant response rating, Cocklebur (cocklebur; [5]): 0 | Plant response rating, Cocklebur (cocklebur; [6]): 0 | Cocklebur plant response rating (cocklebur; [8]): 3 | Wild oats plant response rating (wild oat; [1]): 0 | Wild oats plant response rating (wild oat; [2]): 0 | Wild oats plant response rating (wild oat; [4]): 0 | Wild oats plant response rating (0 to 10 scale) (wild oat; [9]): 3 | Plant response rating, Wild oats (wild oat; [10]): 4 | Wild oats plant response rating (wild oat; [7]): 6 | Plant response rating, Wild oats (wild oat; [11]): 0 | Wild oats plant response rating (wild oat; [8]): 1 | Wheat plant response rating (wheat; [1]): 0 | Wheat plant response rating (wheat; [2]): 0 | Wheat plant response rating (wheat; [4]): 0 | Wheat plant response rating (0 to 10 scale) (wheat; [9]): 0 | Plant response rating, Wheat (wheat; [10]): 0 | Wheat plant response rating (wheat; [7]): 0 | Plant response rating, Wheat (wheat; [11]): 0 | Wheat plant response rating (wheat; [8]): 0 | B. signalgrass plant response rating (surinam grass; [1]): 0 | B. signalgrass plant response rating (surinam grass; [3]): 0 | B. signalgrass plant response rating (surinam grass; [4]): 0 | Plant response rating, B. signalgrass (surinam grass; [5]): 1 | Plant response rating, B. signalgrass (surinam grass; [6]): 1 | B. signalgrass plant response rating (surinam grass; [7]): 5 | B. signalgrass plant response rating (surinam grass; Rate 125 g/ha, Postemergence, scale 0 to 10, 0 no effect, 10 complete control): 0 | B. signalgrass plant response rating (surinam grass; Rate 500 g/ha, Postemergence, scale of 0 to 10 where 0 is no effect and 10 is complete control): 2 | Corn plant response rating (corn; [1]): 0 | Corn plant response rating (corn; [2]): 0 | Corn plant response rating (corn; [3]): 0 | Corn plant response rating (corn; [4]): 0 | Plant response rating, Corn (corn; [5]): 2 | Plant response rating, Corn (corn; [6]): 3 | Corn plant response rating (corn; [7]): 6 | Corn plant response rating (corn; [8]): 0 | Morningglory plant response rating (morningglory; [1]): 10 | Morningglory plant response rating (morningglory; [2]): 10 | Morningglory plant response rating (morningglory; [3]): 10 | Morningglory plant response rating (morningglory; [4]): 0 | Plant response rating, Morningglory (morningglory; [5]): 0 | Plant response rating, Morningglory (morningglory; [6]): 0 | Morningglory plant response rating (morningglory; [7]): 0 | Morningglory plant response rating (morningglory; [8]): 10 | Sugarbeets plant response rating (sugar beet; [1]): 2 | Sugarbeets plant response rating (sugar beet; [2]): 2 | Sugarbeets plant response rating (sugar beet; [4]): 0 | Sugarbeets plant response rating (0 to 10 scale) (sugar beet; [9]): 0 | Plant response rating, Sugarbeets (sugar beet; [10]): 0 | Sugarbeets plant response rating (sugar beet; [7]): 2 | Plant response rating, Sugarbeets (sugar beet; [11]): 2 | Sugarbeets plant response rating (sugar beet; [8]): 3 | Nutsedge plant response rating (purple nutsedge; [1]): 0 | Nutsedge plant response rating (purple nutsedge; [2]): 0 | Nutsedge plant response rating (purple nutsedge; [3]): 0 | Nutsedge plant response rating (purple nutsedge; [4]): 0 | Plant response rating, Nutsedge (purple nutsedge; [5]): 0 | Plant response rating, Nutsedge (purple nutsedge; [6]): 0 | Nutsedge plant response rating (purple nutsedge; [7]): 0 | Nutsedge plant response rating (purple nutsedge; [8]): 0 | Blackgrass plant response rating (blackgrass; [1]): 0 | Blackgrass plant response rating (blackgrass; [2]): 0 | Blackgrass plant response rating (blackgrass; [3]): 3 | Blackgrass plant response rating (blackgrass; [4]): 0 | Plant response rating, Blackgrass (blackgrass; [5]): 1 | Plant response rating, Blackgrass (blackgrass; [6]): 8 | Blackgrass plant response rating (blackgrass; [7]): 9 | Blackgrass plant response rating (blackgrass; [8]): 6 | Barnyardgrass plant response rating (bamyardgrass; [1]): 0 | Barnyardgrass plant response rating (bamyardgrass; Rate 125 g/ha, Postemergence section (flood test species), scale 0 to 10, 0 no effect, 10 complete control): 0 | Barnyardgrass plant response rating (bamyardgrass; [12]): 0 | Plant response rating, Barnyardgrass (bamyardgrass; [13]): 0 | Barnyardgrass plant response rating (bamyardgrass; [14]): 9 | Barnyardgrass plant response rating (bamyardgrass; [15]): 0 | Barnyardgrass plant response rating (bamyardgrass; Rate 2000 g/ha, Pre-emergence (as headed), scale 0 to 10, 0 no effect, 10 complete control): 7 | Barnyardgrass plant response rating (bamyardgrass; flood test, listed under Postemergence, Rate 250 g/ha, scale 0 to 10, 0 no effect, 10 complete control): 0 | Rice plant response rating (rice; Postemergence (flood test species), Rate 125 g/ha, scale of 0 to 10 where 0 is no effect and 10 is complete control): 0 | Rice plant response rating (rice; [1]): 0 | Plant response rating, Rice (rice; Rate 250 g/ha, Postemergence (flood test), scale 0 to 10, 0 is no effect, 10 is complete control): 0 | Rice plant response rating (rice; [12]): 0 | Plant response rating, Rice (rice; [13]): 0 | Rice plant response rating (rice; [14]): 0 | Rice plant response rating (rice; [15]): 0 | Rice plant response rating (rice; Rate 2000 g/ha, Pre-emergence (as headed), scale 0 to 10): 0 | Crabgrass plant response rating (crabgrass; [1]): 3 | Crabgrass plant response rating (crabgrass; [2]): 3 | Crabgrass plant response rating (crabgrass; [3]): 8 | Crabgrass plant response rating (crabgrass; [4]): 3 | Plant response rating, Crabgrass (crabgrass; [5]): 3 | Plant response rating, Crabgrass (crabgrass; [6]): 6 | Crabgrass plant response rating (crabgrass; [7]): 10 | Crabgrass plant response rating (crabgrass; [8]): 9 | Redroot pigweed plant response rating (pigweed; [1]): 0 | Redroot pigweed plant response rating (pigweed; [2]): 0 | Redroot pigweed plant response rating (pigweed; [4]): 0 | Plant response rating, Redroot pigweed (pigweed; [5]): 0 | Plant response rating, Redroot pigweed (pigweed; [6]): 0 | Redroot pigweed plant response rating (pigweed; [7]): 4 | Plant response rating, Redroot pigweed (pigweed; Rate 250 g/ha, Postemergence, scale 0 to 10, 0 is no effect, 10 is complete control): 2 | Redroot pigweed plant response rating (pigweed; [8]): 4
